Read-outs that look alike come from different tables or passages of the source.
Legend:
ErbB2 in SK-BR3 = experiment: Degradation of HSP90 client ErbB2 in SK-BR3, Western blotting after 18 hrs treatment; type: cell-based; conditions: SK-BR3, 18 hrs treatment, E-oxime isomer
[1] = system: BT-474 (breast tumor cell line) xenograft; experiment: BT-474 breast tumor xenograft in CB17/SCID mice; type: in vivo; parameters: Regression in tumor volume / Inhibition of tumor growth: dose or concentration left out as unconfirmed
Description: FIG. 1 depicts the tumor volume and animal weight change following treatment with compound 13a or control vehicle. Each point represents the mean of measurements from 5 (for vehicle) or 6 (for 13a) animals. The experiment was carried out for 28 days and tumor volumes were determined weekly by caliper measurement. Student's t-test was used to determine the statistical analysis of the difference between tumor volumes of vehicle-treated and drug-treated animals. Individual body weights were also determined weekly. Statistical significance was achieved (comparing tumor volumes in vehicle-treated and drug-treated animals) at day 21 for the q4d schedule (p=0.0497). In comparison, on the q2d schedule increasing statistical significance was achieved on days 14, 21, and 28, when comparing tumor volume of vehicle-treated and drug-treated animals (p=0.012, p=0.007, and p=0.0002, respectively).
Top panels represent hematoxylin & eosin (H & E) stained paraffin sections. Nuclei appear blue in color. The dark blue condensed nuclei in drug-treated tumors (right) are consistent with apoptotic cells. […] Bottom panels represent TUNEL (terminal deoxynucleotidyl transferase-mediated dUTP-biotin nick end labeling)-stained paraffin sections. The high preponderance of reddish-pink nuclei (positive for TUNEL staining) in the drug-treated tumors reflects DNA fragmentation which is characteristic of apoptosis. Blue arrowheads point to characteristic TUNEL positive nuclei.
Two schedules of 100 mg every other day (q2d) or every four days (q4d) during 28 days were investigated.
Based on the in vitro data shown in Table 3, compound 13a was further evaluated in vivo.

HCC1954 = experiment: Cytotoxicity against HCC1954 breast cancer cells; type: cell-based; conditions: Homo sapiens, second value of cell
Description: (§1) Compounds of the invention were assayed for cytotoxicity in HCC1954 and SK-BR-3 tumor cells.

HSP90α = HSP90α (Homo sapiens, UniProt P07900); experiment: Affinity to HSP90α; type: binding
Her-2 (HSP90 client) = Her-2 (HSP90 client) degradation (client depletion); type: cell-based
Description: A number of the compounds of the invention were tested for affinity to HSP90α (see Kim et al., J. Biomol. Screen., 2004, 9, 375), Her-2 (HSP90 client) degradation (see Xu et al., J. Biol. Chem., 2001, 276, 3702), and cytotoxicity against SKBr3 and HCC1954, two breast cancer cell lines which over express Her-2.

SKBr3 = experiment: Cytotoxicity against SKBr3 breast cancer cells; type: cell-based; conditions: Homo sapiens, SK-BR-3, first value of cell
Description: as §1

HSP90 = conditions: cited from earlier work
[2] = Her-2 degradation; read-out: Client Depletion
[3] = read-out: Client Depletion; Her-2 degradation

| Structure (SMILES) | IC50 (HSP90α; read-out: HSP90 affinity) | IC50 (Her-2 (HSP90 client); [2]) | IC50 (HSP90α; HSP90 affinity) | IC50 (Her-2 (HSP90 client); [3]) | Reduction of ErbB2 concentration compared with radicicol and 17-AAG (ErbB2 in SK-BR3) | Weight loss ([1]; q2d and q4d schedules, 28 days) | Inhibition of tumor growth ([1]; q2d or q4d during 28 days) | Regression in tumor volume ([1]; q2d schedule, 28 days) | Tumor histology: cellularity ([1]; q2d schedule, 28 days) | Tumor nuclear TUNEL staining (apoptosis) ([1]; q2d schedule, 28 days) | IC50 (HCC1954) | IC50 (SKBr3) | Inhibitor of HSP90 (HSP90) |
| --- | --- | --- | --- | --- | --- | --- | --- | --- | --- | --- | --- | --- | --- |
| O=C1OCC/C=C/CC/C=C/C(=N/OCC(=O)N2CCCCC2)Cc2c(Cl)c(O)cc(O)c21 [13a] | 0.021 µM | 0.035 µM | – | – | significantly more effective than both radicicol and 17-AAG | Neither the q2d nor the q4d schedules resulted in significant weight loss | dose-dependent inhibition of the tumor growth | 18% | dramatic loss of cellularity | high degree of nuclear TUNEL staining | 0.32 µM | 0.125 µM | – |
| O=C1OCC/C=C/CC/C=C/C(=N/OCC(=O)N2CCCCC2)Cc2cc(O)cc(O)c21 [13b] | – | – | 0.015 µM | 0.05 µM | significantly more effective than both radicicol and 17-AAG | – | – | – | – | – | 0.22 µM | 0.12 µM | – |
| C[C@@H]1C/C=C/CC/C=C/C(=N/OCC(=O)N2CCCCC2)Cc2cc(O)cc(O)c2C(=O)O1 [13c] | – | – | 0.018 µM | 0.026 µM | significantly more effective than both radicicol and 17-AAG | – | – | – | – | – | 0.63 µM | 0.45 µM | – |
| C[C@@H]1CC2O[C@@H]2CC/C=C/C(=O)Cc2c(Cl)c(O)cc(O)c2C(=O)O1 (some centres unmarked) [pochonin A] | – | – | – | – | – | – | – | – | – | – | – | – | 90 nM |

Now from value to molecule, other results behind:

| IC50 (HSP90α; read-out: HSP90 affinity) | IC50 (Her-2 (HSP90 client); [2]) | IC50 (HSP90α; HSP90 affinity) | IC50 (Her-2 (HSP90 client); [3]) | Structure (SMILES) | Reduction of ErbB2 concentration compared with radicicol and 17-AAG (ErbB2 in SK-BR3) | Weight loss ([1]; q2d and q4d schedules, 28 days) | Inhibition of tumor growth ([1]; q2d or q4d during 28 days) | Regression in tumor volume ([1]; q2d schedule, 28 days) | Tumor histology: cellularity ([1]; q2d schedule, 28 days) | Tumor nuclear TUNEL staining (apoptosis) ([1]; q2d schedule, 28 days) | IC50 (HCC1954) | IC50 (SKBr3) | Inhibitor of HSP90 (HSP90) |
| --- | --- | --- | --- | --- | --- | --- | --- | --- | --- | --- | --- | --- | --- |
| 1.8 µM | > 10 µM | – | – | O=C1OCC/C=C/CC/C=C/C(=N\OCC(=O)N2CCCCC2)Cc2c(Cl)c(O)cc(O)c21 [14a] | – | – | – | – | – | – | 5.2 µM | > 10 µM | – |
| – | – | 0.11 µM | 5 µM | O=C1OCC/C=C/CC/C=C/C(=N\OCC(=O)N2CCCCC2)Cc2cc(O)cc(O)c21 [14b] | – | – | – | – | – | – | > 10 µM | > 10 µM | – |
